# Results from patent US9982265B2, “Inhibition of Bruton's tyrosine kinase (Btk) in the lung to treat severe lung inflammation and lung injury” (BOARD OF REGENTS, THE UNIVERSITY OF TEXAS SYSTEM, priority 2014, dated 2018).
# Tests used:
# [1] = tested on: mice with LPS/IC induced ALI; assay: Two hit model of LPS/IC induced acute lung injury, Lung Injury Score from pulmonary histopathology; type: in vivo; settings: Table 5; intranasal treatment after LPS, before ICs; samples 14 h after IC; score 0 to 2; means ± SD, 4-5 animals per group
# Experimental: BALB/c mice (Taconic Germantown, N.Y.) were first injected intraperitoneally (i.p.) with either LPS or saline and 8 h later received anti-KC:KC immune complexes or saline (control) by intranasal (i.n.) route. Anti-KC:KC immune complexes were prepared according to the protocol routinely used in our laboratory (28). Some mice received Btk specific siRNA intranasally. In other experiments the animals were treated i.n. with siRNA specific for Btk (see SEQ ID NOs:18-25) or MMP-9 (Invitrogen), both conjugated (T3™-MAX Conjugation Kit (Bioo Scientific Corporation, Austin, Tex.) to F(ab′)2 fragments of anti-mouse neutrophil antibody Ly-6G1A8). F(ab′)2 fragments alone or conjugated to control siRNA (SEQ ID NO's 26 and 27) (Invitrogen) served as controls of the treatment. Two or fourteen hours after i.n. administration of either immune complexes or saline, the animals were euthanized and samples collected for further evaluation. To study role of neutrophil FcγRIII receptors neutrophils were first depleted by i.p. injection of vinblastine (31) followed by adoptive transfer of cells deficient in FcγRIII receptors prepared as described below. […] Lung dysfunction was assessed by analysis of pulmonary histopathology.
# Pulmonary Histopathology: Lungs were fixed in ExCellPlus (AMTS, Lodi, Calif.), embedded in paraffin, and sectioned at 5 μm. […] The images of stained sections were evaluated for the presence of alveolar exudate, infiltration of inflammatory cells, and interstitial thickening. Lung Injury Score (LIS) was assessed as described earlier (28). Most images were assessed at magnification of over 400×. […] At the minimum twenty sections from each group of mice were evaluated and 4 investigators participated in the analysis of 50 or more fields per group. According to recommendation of “An Official American Thoracic Society Workshop Report: Features and Measurements of Experimental Acute Lung Injury in Animals” (Am J Respir Cell Mol Biol 44 725-738, 2011) more than 20 high power fields were independently scored (as described above) and at least 50% of each field was occupied by lung alveoli. […]
# MMP-9 = assay: Expression of MMP-9 in alveolar neutrophils of treated ALI mice, laser confocal microscopy; type: in vivo; settings: LPS/IC ALI; FIGS. 6A and B
# Experimental: Laser Confocal Microscopy: Purified alveolar neutrophils mounted on cytospins were incubated with the following primary antibodies: anti-mouse Btk, anti-mouse MyD88, anti-mouse MMP-9 (Santa Cruz Biotechnology), and anti-mouse pBtk (Invitrogen, Grand Island, N.Y.). Species specific antibodies conjugated with fluorescent dyes were subsequently applied to slides. Lung tissue sections, processed as routinely done in our laboratory (26, 28), were incubated with anti-mouse FcγRIII antibody (R&D Systems, Minneapolis, Minn.), or anti-mouse MMP-9 antibody (Santa Cruz Biotechnology), or with anti-neutrophil (Ly6G1A8) antibody (Bio X Cell, West Lebanon, N.H.) followed by fluorescence dye-conjugated secondary antibodies. Hoechst 33342 (Calbiochem, San Diego, Calif.) was employed to stain nuclei. Laser confocal microscopy was performed using PerkinElmer Ultra VIEW LCI confocal imaging system with Nikon TE2000-S fluorescence microscope and PlanApox60 immersion oil objective (numerical aperture [NA] 1.4) at room temperature. Ultra VIEW Imaging Suite software (version 5.5.0.4) was used for image processing.
# Neutrophils are implicated in ALI because of various substances released from granules into the area of inflammation. MMP-9 (gelatinase B) is one of the most extensively studied MMPs in the context of ALI. […]
substance,measurement,setting,value
"Cont siRNA: control siRNA #8 (SEQ ID NO:26/27) conjugated to F(ab′)2 fragments of Ly6G1A8 (chain 1 UUCCUCUCCACGCGCAGUACAUUUA; chain 2 AAGGAGAGGUGCGCGUCAUGUAAAU; conjugated to antibody F(ab')2 fragment, attachment not given here; one strand is listed 3' to 5')",Lung Injury Score: Edema fluid,[1],1.337 ± 0.170
same,Lung Injury Score: Inflammatory infiltration,[1],1.824 ± 0.141
same,Lung Injury Score: Thickening of alveolar septa,[1],1.607 ± 0.276
same,MMP-9 expression in lung neutrophils,MMP-9,detectable
